According to patent US7910624B1, “Compositions for the treatment of blood disorders” (The Trustees of Boston University, priority 1995, dated 2011):

Key:
[1] = tested on: erythroid cells (peripheral blood cells); test: Erythroid cell viability by Calcein-AM fluorescent staining (FIG. 2); format: cell-based
Description: Compositions were tested for the ability to directly stimulate erythroid cell growth. Cell growth stimulation is a useful property for an agent to be used to treat anemias and distinguishes such agents from the cytotoxic drugs currently being tested for treatment of hemoglobinopathies. Cell viability analyses were performed using fluorescent staining to detect living cells. Cells were in log phase of growth in 6-well dishes when used in proliferation assays. For enumeration of living cells, wells were washed once with medium to remove nonadherent or dead cells. Remaining live cells were labeled with 2 μM 2′,7′-bis-(carboxyethyl)-5-(and 6)-carboxy-fluorescein acetoxy-methyl ester (Calcein-AM) (Molecular Probes; Eugene, Oreg.) for 20 minutes at 37° C. and washed once. Fluorescence intensity of live cells was read on a CytoFluor 2300 Fluorescence Plate Scanner (Millipore; Bedford, Mass.) at excitation and emission wavelengths of 485 and 530 nm, respectively. The fluorescence intensity of a well was proportional to the number of living cells in the well. Background fluorescence was measured separately for each plate and subtracted from all readings. Each experiment was performed in triplicate or quadruplicate. The standard deviation (SD) of repetitive readings was less than 30% of the mean. Results are depicted in FIG. 2.

K562 cells = test: Dose response, total and viable cells by trypan blue exclusion (FIG. 3); format: cell-based, human; settings: day 4
Description: FIG. 3 A FIG. 3E Cell viability as determined by the comparative numbers of total and viable K562 cells in the presence of increasing concentrations of (A) phenoxyacetic acid, (B) dihydrocinnamic acid, (C) butyric acid ethyl ester, (D) arginine butyrate, and (E) isobutyramide.
Dose response curves at dosages of up to 2.0 mM were also determined for phenoxyacetic acid (PAA; FIG. 3A), dihydrocinnamic acid (DHC; FIG. 3B), butyric acid ethyl ester (BAEE; FIG. 3C), arginine butyrate (AB; FIG. 3D) and isobutyramide (IBT; FIG. 3E). Cells were counted on day 4 of treatment and viable cells identified by trypan blue exclusion.

[2] = tested on: Human erythroleukemia cells; test: Fetal globin mRNA in erythroleukemia cells by primer extension; format: cell-based; settings: 1.0 mM, 4 days
Description: Compounds were tested for increased expression of the human globin genes in human erythroid cells. In addition, as the cell line being tested is a tumor cell line, the assay determines if differentiation, a growth inhibitory effect on cancer cells, is induced by the compounds tested. Human erythroleukemia cells were cultured in RPMI media with 10% fetal calf serum alone or with treatment with various compounds for 4 days. Globin mRNA was quantitated by primer extension analysis. Fetal globin mRNA was compared to the amount of fetal globin mRNA produced in untreated cells during the same culture period. The quantitation was expressed as a percent of alpha globin mRNA which was constant. Results are expressed proportional to α-globin mRNA (Table 3).

[3] = tested on: human erythroid cell line K562; test: Cell viability / growth of K562 by Calcein-AM fluorescence; format: cell-based; settings: over 3 days
Description: Such activities might limit their utility for treatment of anemias such as occur in thalassemia, but alternatively would be useful for anticancer effects. To determine cell viability, human erythroid cells were cultured in the presence and absence of these compounds for 4 days and the amount of DNA fragmentation which occurred was measured.
Cell viability analyses were performed using fluorescent staining to detect living cells. Cells were in log phase of growth in 6-well dishes when used in proliferation assays. For enumeration of living cells, wells were washed once with medium to remove nonadherent or dead cells. Remaining live cells were labeled with Calcein-AM for 20 minutes at 37° C. and washed once. Fluorescence intensity of adherent live cells was read on a CytoFluor 2300 Fluorescence Plate Scanner (Millipore; Bedford, Mass.) at excitation and emission wavelengths of 485 and 530 nm, respectively. The fluorescence intensity of a well was proportional to the number of living cells in the well. Background fluorescence was measured separately for each plate and subtracted from all readings. Each experiment was performed in triplicate or quadruplicate. The standard deviation (SD) of repetitive readings was less than 30% of the mean.
At higher concentrations, still easily achievable in vivo, arginine butyrate (0.5 mM) and dihydrocinnamic acid (greater than 0.5 mM) inhibited growth of this tumor cell line by approximately 50%. Therefore, these compounds are also useful as anti-tumor agents.

anemic juvenile baboons = test: In vivo reticulocyte proliferation and globin expression in phlebotomized anemic baboons; parameters: species or system baboon
How it was run: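 Juvenile female baboons, phlebotomized daily to hemoglobin 7.0-7.5 g/dl, received compounds sequentially with washout to baseline reticulocytes, each animal its own control. HbF-positive reticulocytes were counted by dual-antibody FACS. γ/(γ+β) globin synthesis ratio came from ^3H-leucine labeling and chromatographic chain separation, unadjusted for phlebotomy.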

[4] = tested on: system A transport in K562 cells and nucleated erythroblasts from fetal liver; test: System A (neutral amino acid) transport, 3H-MAIB uptake; format: cell-based, human; settings: 1 hour incubation, FIG. 12
Description: Inhibition of nutrient uptake is undesirable for treatment of anemias. Methyl aminoisobutyric acid (MAIB) labeled with tritium (^3H) is normally taken up by system A amino acid transport. Cold (unlabeled) compounds were added to cultures containing ^3H-MAIB and incubated for 1 hour. Cells were harvested and the amount of ^3H taken up by cells was quantitated by scintillation counting.

[5] = 1,000 to 1,500 mg/kg/day, 4 days

CCCC(=O)O [AB, arginine butyrate]
erythroid cell growth and proliferation compared to untreated controls (FIG. 2) ([1]; 0.2 mM): inhibited proliferation
erythroid cell growth and proliferation compared to untreated controls (FIG. 2) ([1]; 0.5 mM): inhibited proliferation
cell growth (dose response, FIG. 3) (K562 cells; concentrations above 0.2 mM): suppressed cell growth
induction of fetal globin mRNA in human cells [2]: significantly increased
growth of K562 ([3]; 0.2 mM): either did not inhibit, or slightly enhanced growth
response of the same monkey (anemic juvenile baboons; 1,000 mg/kg for 5 days or 2,000 mg/kg for 3 days): had not responded
system A transport of amino acids (3H-MAIB uptake) [4]: inhibited the neutral amino acid transport mechanism

O=C(O)COc1ccccc1 [PAA, Phenoxyacetic acid]
erythroid cell growth and proliferation compared to untreated controls (FIG. 2) ([1]; 0.5 mM): either had no effect or stimulated erythroid cell growth and proliferation
proliferation (dose response, FIG. 3) (K562 cells; up to 2.0 mM): did not significantly inhibit proliferation
induction of fetal globin mRNA in human cells [2]: significantly increased
Gamma/Alpha (fetal globin mRNA proportional to α-globin mRNA) ([2]; untreated 0.46): 0.70
Gamma Globin mRNA (increase ↑) ([2]; versus untreated): 24% ↑
growth of K562 ([3]; 0.5 mM): either did not inhibit, or slightly enhanced growth
time the effect maintained itself after drug was discontinued (anemic juvenile baboons; 1,500 mg/kg each day, 5 days): two days
reticulocytes after treatment (anemic juvenile baboons; 1,500 mg/kg each day, 5 days, from 1.9%): 9.2 % of all red blood cells
white blood cell count after treatment (anemic juvenile baboons; 1,500 mg/kg each day, 5 days, from 6.9): 9.5 ×10^3 cells/μl
packed red blood cell volume after treatment (anemic juvenile baboons; 1,500 mg/kg each day, 5 days, from 22%): 25.4%
fetal reticulocytes, fold above baseline (anemic juvenile baboons; [5]): eight-fold
fetal reticulocytes, percent above baseline (anemic juvenile baboons; [5]): 800%
increase in output of fetal globin production over basal levels (anemic juvenile baboons; [5]): 4,000%
fetal globin protein synthesis after treatment (anemic juvenile baboons; 1,000 to 1,500 mg/kg/day, 4 days, from 0%): 5%
fetal reticulocytes after treatment (anemic juvenile baboons; another juvenile baboon, intravenous 1,000 to 1,500 mg/kg/day, 4 days, from 2%): 16%
total hemoglobin after treatment (anemic juvenile baboons; infused 1,500 mg/kg each day, 5 days (FIG. 7), from 6.8): 7.6 grams/dl
proportion of fetal reticulocytes on treatment (anemic juvenile baboons; infused 5 days, 500, 1,000 and 1,500 mg/kg (8 hours each), after 3 days (FIG. 9), from 12%): 27%
system A transport of amino acids (3H-MAIB uptake) ([4]; listed as phenoxy acetic acid): caused no significant inhibition and actually increased uptake of nutrients into cells
system A transport of amino acids (3H-MAIB uptake) ([4]; listed as phenoxyacetic acid): do not significantly alter
